Assay results published in patent US10278957B2, “Opioid agonist peptides and uses thereof” (Protagonist Therapeutics, Inc., priority 2017, dated 2019).
Square brackets hold non-standard residues; d marks the D form. Peptide text beside a SMILES is read from it. Phe(3,4-(OMe)2) = COc1ccc(C[C@H](N)C(=O)O)cc1OC; Phe(3,4-Cl2) = N[C@@H](Cc1ccc(Cl)c(Cl)c1)C(=O)O; Phe(4-tBu) = CC(C)(C)c1ccc(C[C@H](N)C(=O)O)cc1; Bip = N[C@@H](Cc1ccc(-c2ccccc2)cc1)C(=O)O; Dip = N[C@H](C(=O)O)C(c1ccccc1)c1ccccc1; Phe(4-F) = N[C@@H](Cc1ccc(F)cc1)C(=O)O; Dmt = Cc1cc(O)cc(C)c1C[C@H](N)C(=O)O; dNMeF = CN[C@H](Cc1ccccc1)C(=O)O; αMeF = C[C@](N)(Cc1ccccc1)C(=O)O; Tic = O=C(O)[C@@H]1Cc2ccccc2CN1; β3hF = N[C@H](CC(=O)O)Cc1ccccc1; N(octyl)Gly = CCCCCCCCNCC(=O)O; Nle = CCCC[C@H](N)C(=O)O; Sar = CNCC(=O)O

Target: T1, δ-opioid receptor (DOR) (Homo sapiens, UniProt P41143)
T1 construct: host or cells: cAMP Hunter CHO-K1 OPRD1 Gαi cell line
T1 sequence (P41143 whole entry): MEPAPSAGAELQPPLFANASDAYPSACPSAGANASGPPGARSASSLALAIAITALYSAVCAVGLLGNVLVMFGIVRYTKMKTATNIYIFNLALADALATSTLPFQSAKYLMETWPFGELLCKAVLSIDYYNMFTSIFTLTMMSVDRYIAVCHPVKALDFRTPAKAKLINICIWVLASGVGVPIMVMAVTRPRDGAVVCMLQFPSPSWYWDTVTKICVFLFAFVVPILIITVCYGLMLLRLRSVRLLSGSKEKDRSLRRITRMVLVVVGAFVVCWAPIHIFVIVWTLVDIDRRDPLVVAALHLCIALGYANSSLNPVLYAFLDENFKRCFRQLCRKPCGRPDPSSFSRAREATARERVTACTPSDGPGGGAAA
Assay: DOR agonist cAMP assay (HitHunter cAMP, forskolin-stimulated)
Format: cell-based
Description: The HitHunter® cAMP chemiluminescent assay kit (DiscoveRx, Cat# 90-0075 SM25) was used to detect cAMP production in cAMP Hunter™ Gαi cell lines over expressing either Human-ORPM1 (Discoverx, Catalog# 95-0107C2) or Human-ORPD1 (DiscoveRx, Catalog# 95-0108C2). Opioid agonist binding to the Gαi receptors inhibits the intracellular cAMP accumulation induced by forskolin, which activates adenylate cyclase and increases intracellular levels of cAMP.
Cells were cultured in media consisting of Ham's F-12 Nutrient Mix (Life Technologies, Catalog#31765035), 10% FBS (Life Technologies, Catalog# 16140-071), 4 mM GlutaMAX (Life Technologies, Catalog#35050-061), […] (Life Technologies), 100 ug/ml of Penn-Strep (Life Technologies) and 0.5 mg/ml Geneticin (Life Technologies, Catalog# 10131-027). The cultures were maintained at 37° C. under 5% CO2.
In preparation for cAMP assay, the cells were seeded at a density of 300,000 cells/ml in 100 ul of media/well in 96-well microplate. Wells that were designated for cAMP standards were left empty.
Opioid agonist serial dilutions were prepared in separate dilution plate (11-point series of 3× (3-fold) dilution) in Cell Assay buffer, including 3× forskolin for Gαi target. For Hunter CHO-K1 OPRM1 or CHO-K1 OPRD1 Gαi Cell Lines, the final forskolin concentration was 20 uM.
15 ul of each 3× opioid agonist serial dilution was added in the presence of forskolin in duplicate to the designated wells. The final concentration of each dilution was at 3× of the final screening concentration. The assay plate was incubated for 30 min, at 37° C. under 5% CO2.
Cellular cAMP concentrations were measured using the HitHunter cAMP Assay kit following the manufacturer's protocol. HitHunter cAMP assay is a gain-of-signal competitive immunoassay based on Enzyme Fragment Complementation (EFC) technology. The kit uses β-galactosidase (β-gal) enzyme split into Enzyme Donor (ED) and Enzyme Acceptor (EA). The cellular cAMP and ED-labelled cAMP compete for anti-cAMP antibody. […] When cellular cAMP level is high, it competes for the anti-cAMP antibody, thereby releasing ED-cAMP to complement with EA to produce a luminescent signal. The amount of signal is directly proportional to the amount of cAMP in cells and can be quantified using cAMP standards. The assay plates were read using a PerkinElmer Envision instrument to detect the chemiluminescence signal in each well (luminescence reader at 0.1 to 1 second/well). Data analysis was performed using Graphpad Prism 7.EC50 was calculated by nonlinear regression, using the four-parameter hill equation.

SMILES	EC50
Cc1cc(O)cc(C)c1C[C@H](N)C(=O)N[C@H](CCCNC(=N)N)C(=O)N[C@@H](Cc1ccc(Cl)c(Cl)c1)C(=O)N(C)CC(N)=O [compound 22] (H-[Dmt][dR][Phe(3,4-Cl2)][Sar]-NH2)	10 to 50 nM
Cc1cc(O)cc(C)c1C[C@H](N)C(=O)N[C@H](C)C(=O)NCC(=O)N[C@@H](Cc1ccc(C#N)cc1)C(=O)NCC(N)=O [compound 39]	< 1 nM
CC(=O)N[C@@H](Cc1c(C)cc(O)cc1C)C(=O)N[C@H](C)C(=O)NCC(=O)N[C@H](CC(=O)N(C)CC(N)=O)Cc1ccccc1 [compound 86]	10 to 50 nM
Cc1cc(O)cc(C)c1C[C@H](N)C(=O)N[C@H](C)C(=O)NCC(=O)N[C@H](CC(=O)N(CC(N)=O)CC1CCCCC1)Cc1ccccc1 [compound 119]	1 to 10 nM
Cc1cc(O)cc(C)c1C[C@H](N)C(=O)N[C@H](C)C(=O)NCC(=O)N[C@H](CC(=O)N(CCC(=O)O)CC(N)=O)Cc1ccccc1 [compound 120]	< 1 nM
Cc1cc(O)cc(C)c1C[C@H](N)C(=O)N[C@H](C)C(=O)NCC(=O)N[C@@H](Cc1ccc(Cl)c(Cl)c1)C(=O)NCC(N)=O [compound 41]	< 1 nM
CCCC[C@H](NC(=O)[C@H](Cc1ccccc1)NC(=O)[C@@H](CCCN=C(N)N)NC(=O)[C@@H](N)Cc1c(C)cc(O)cc1C)C(N)=O [compound 28] (H-[Dmt][dR]F[Nle]-NH2)	10 to 50 nM
Cc1cc(O)cc(C)c1C[C@H](N)C(=O)N[C@H](CCCNC(=N)N)C(=O)NCC(=O)N[C@H](C(N)=O)C(c1ccccc1)c1ccccc1 [compound 33] (H-[Dmt][dR]G[Dip]-NH2)	> 200 nM
Cc1cc(O)cc(C)c1C[C@H](N)C(=O)N[C@H](C)C(=O)NCC(=O)N[C@H](CC(=O)N(CC(N)=O)C1CCCCC1)Cc1ccccc1 [compound 123]	< 1 nM
Cc1cc(O)cc(C)c1C[C@H](N)C(=O)N[C@H](CCCNC(=N)N)C(=O)N[C@@H](Cc1ccc(-c2ccccc2)cc1)C(=O)N(C)CC(N)=O [compound 23] (H-[Dmt][dR][Bip][Sar]-NH2)	< 1 nM
C[C@@H](NC(=O)[C@@H](N)Cc1ccc(O)cc1)C(=O)NCC(=O)N[C@H](CC(=O)N(C)CC(N)=O)Cc1ccccc1 [compound 62]	1 to 10 nM
Cc1cc(O)cc(C)c1C[C@H](N)C(=O)N[C@H](CCCNC(=N)N)C(=O)N[C@@H](Cc1ccccc1)C(=O)N[C@H](C(N)=O)C(c1ccccc1)c1ccccc1 [compound 36] (H-[Dmt][dR]F[Dip]-NH2)	10 to 50 nM
Cc1cc(O)cc(C)c1C[C@H](N)C(=O)N(C)[C@@H](CCCNC(=N)N)C(=O)NCC(=O)N[C@H](CC(=O)N(C)CC(N)=O)Cc1ccccc1 [compound 91]	50 to 200 nM
Cc1cc(C(N)=O)cc(C)c1C[C@H](N)C(=O)N(C)[C@@H](CCCNC(=N)N)C(=O)NCC(=O)N[C@H](CC(=O)N(C)CC(N)=O)Cc1ccccc1 [compound 78]	50 to 200 nM
Cc1cc(O)cc(C)c1C[C@H](N)C(=O)N[C@H](CCCNC(=N)N)C(=O)N(C)CC(=O)N[C@@H](Cc1c[nH]c2ccccc12)C(N)=O [compound 35] (H-[Dmt][dR][Sar]W-NH2)	> 200 nM
Cc1cc(O)cc(C)c1C[C@H](N)C(=O)N[C@H](C)C(=O)NCC(=O)N1Cc2ccccc2C[C@H]1C(=O)NCC(N)=O [compound 40]	10 to 50 nM
Cc1cc(C(N)=O)cc(C)c1C[C@H](N)C(=O)N[C@H](CC(=O)O)C(=O)NCC(=O)N[C@H](CC(=O)N(C)CC(N)=O)Cc1ccccc1 [compound 77]	< 1 nM
Cc1cc(O)cc(C)c1C[C@H](N)C(=O)N[C@H](CCCNC(=N)N)C(=O)N[C@@H](Cc1ccccc1)C(=O)N[C@@H](CC(C)C)C(N)=O [compound 29] (H-[Dmt][dR]FL-NH2)	10 to 50 nM
Cc1cc(O)cc(C)c1C[C@H](N)C(=O)N[C@H](C)C(=O)NCC(=O)N1Cc2ccccc2C[C@H]1C(=O)N(C)CC(N)=O [compound 107]	10 to 50 nM
CCCCCCCCN(CC(N)=O)C(=O)[C@H](Cc1ccccc1)NC(=O)[C@@H](CCCNC(=N)N)NC(=O)[C@@H](N)Cc1c(C)cc(O)cc1C [compound 27] (H-[Dmt][dR]F[N(octyl)Gly]-NH2)	50 to 200 nM

SMILES	EC50
Cc1cc(O)cc(C)c1C[C@H](N)C(=O)N[C@H](CCCNC(=N)N)C(=O)N[C@@H](Cc1ccccc1)C(=O)N(C)[C@H](Cc1ccccc1)C(N)=O [compound 14] (H-[Dmt][dR]F[dNMeF]-NH2)	10 to 50 nM
Cc1cc(O)cc(C)c1C[C@H](N)C(=O)N[C@H](C)C(=O)NCC(=O)N[C@@H](CCc1ccccc1)C(=O)N(C)CC(N)=O [compound 47]	1 to 10 nM
Cc1cc(O)cc(C)c1C[C@H](N)C(=O)N[C@H](C)C(=O)N(C)CC(=O)N[C@H](CC(=O)N(C)CC(N)=O)Cc1ccccc1 [compound 64]	50 to 200 nM
Cc1cc(O)cc(C)c1C[C@H](N)C(=O)N[C@H](CCCNC(=N)N)C(=O)N[C@@H](Cc1ccccc1)C(=O)N[C@@](C)(Cc1ccccc1)C(N)=O [compound 15] (H-[Dmt][dR]F[αMeF]-NH2)	1 to 10 nM
Cc1cc(O)cc(C)c1C[C@H](N)C(=O)N[C@H](CCCNC(=N)N)C(=O)N1Cc2ccccc2C[C@H]1C(=O)N(C)CC(N)=O [compound 21] (H-[Dmt][dR][Tic][Sar]-NH2)	> 200 nM
Cc1cc(O)cc(C)c1C[C@H](N)C(=O)N[C@H](CCCNC(=N)N)C(=O)N[C@@H](Cc1ccc(C(C)(C)C)cc1)C(=O)N(C)CC(N)=O [compound 24] (H-[Dmt][dR][Phe(4-tBu)][Sar]-NH2)	> 200 nM
COc1ccc(C[C@H](NC(=O)[C@H](Cc2ccccc2)NC(=O)[C@@H](CCCNC(=N)N)NC(=O)[C@@H](N)Cc2c(C)cc(O)cc2C)C(N)=O)cc1OC [compound 17] (H-[Dmt][dR]F[Phe(3,4-(OMe)2)]-NH2)	1 to 10 nM
Cc1cc(O)cc(C)c1C[C@H](N)C(=O)N[C@H](C)C(=O)NCC(=O)N[C@@H](Cc1ccc(F)cc1)C(=O)NCC(N)=O [compound 38]	< 1 nM
Cc1cc(O)cc(C)c1C[C@H](N)C(=O)N[C@H](CCCNC(=N)N)C(=O)N[C@@H](Cc1ccccc1)C(=O)N[C@H](C(N)=O)C(C)C [compound 30] (H-[Dmt][dR]FV-NH2)	1 to 10 nM
CCCCCN(CC(N)=O)C(=O)C[C@H](Cc1ccccc1)NC(=O)CNC(=O)[C@@H](C)NC(=O)[C@@H](N)Cc1c(C)cc(O)cc1C [compound 124]	< 1 nM
Cc1cc(O)cc(C)c1C[C@H](N)C(=O)N[C@H](C)C(=O)NCC(=O)N[C@H](CC(=O)N(CCc1ccccc1)CC(N)=O)Cc1ccccc1 [compound 121]	< 1 nM
COc1ccc(C[C@H](NC(=O)[C@@H](CCCNC(=N)N)NC(=O)[C@@H](N)Cc2c(C)cc(O)cc2C)C(=O)N(C)CC(N)=O)cc1OC [compound 25] (H-[Dmt][dR][Phe(3,4-(OMe)2)][Sar]-NH2)	> 200 nM
Cc1cc(O)cc(C)c1C[C@H](N)C(=O)N[C@H](CCCNC(=N)N)C(=O)N[C@H](C(=O)N(C)CC(N)=O)C(c1ccccc1)c1ccccc1 [compound 26] (H-[Dmt][dR][Dip][Sar]-NH2)	> 200 nM
CCCCCCCCN(CC(N)=O)C(=O)C[C@H](Cc1ccccc1)NC(=O)CNC(=O)[C@@H](C)NC(=O)[C@@H](N)Cc1c(C)cc(O)cc1C [compound 115]	10 to 50 nM
Cc1cc(O)cc(C)c1C[C@H](N)C(=O)N[C@@H](C)C(=O)NCC(=O)N[C@H](CC(=O)N(C)CC(=O)O)Cc1ccccc1 [compound 88]	10 to 50 nM
Cc1cc(O)cc(C)c1C[C@H](N)C(=O)N[C@H](CCCNC(=N)N)C(=O)N[C@@H](Cc1ccccc1)C(=O)N[C@@H](Cc1ccc(F)cc1)C(N)=O [compound 16] (H-[Dmt][dR]F[Phe(4-F)]-NH2)	10 to 50 nM
CCCC[C@H](NC(=O)[C@H](Cc1c[nH]c2ccccc12)NC(=O)[C@@H](CCCNC(=N)N)NC(=O)[C@@H](N)Cc1c(C)cc(O)cc1C)C(N)=O [compound 31] (H-[Dmt][dR]W[Nle]-NH2)	10 to 50 nM
Cc1cc(O)cc(C)c1C[C@H](N)C(=O)N[C@H](C)C(=O)N[C@H](C(=O)N[C@H](CC(=O)N(C)CC(N)=O)Cc1ccccc1)C(C)C [compound 69] (H-[Dmt][dA]V[β3hF][Sar]-NH2)	50 to 200 nM
Cc1cc(O)cc(C)c1C[C@H](N)C(=O)N[C@H](CCCNC(=N)N)C(=O)NCC(=O)N[C@@H](Cc1c[nH]c2ccccc12)C(N)=O [compound 34] (H-[Dmt][dR]GW-NH2)	10 to 50 nM
CCCC[C@@H](C(=O)O)N(C)C(=O)C[C@H](Cc1ccccc1C)NC(=O)CNC(=O)[C@@H](C)NC(=O)[C@@H](N)Cc1c(C)cc(C(N)=O)cc1C [compound 163]	1 to 10 nM
